Key:
Type in all cases: in vivo, human
[1] = test system: sleep disturbance; experiment: PROMIS Sleep Disturbance SF4A survey, randomized blinded placebo-controlled study; details: for Relative Risk for meaningful clinical improvement on the PROMIS Sleep SF4A / Estimated marginal percentage achieving meaningful clinical improvement on the PROMIS Sleep SF4A: 95% CI in parentheses; for Observed % Achieving Meaningful Clinical Improvement on the PROMIS Sleep SF4A: 30% or greater reduction from baseline; for Estimated marginal percentage achieving meaningful clinical improvement on the PROMIS Sleep SF4A: improvement = 30% or greater reduction from baseline
Method: (§1) The primary aim of this study was to assess the effects of three different formulations of TruCBN softgels and a formulation of 4 mg melatonin on sleep quality, relative to placebo control. There were 5 arms within the study; (1) 4 mg melatonin, (2) 25 mg CBN, (3) 50 mg CBN, (4) 100 mg CBN, and (5) placebo (see Table 1 for further details on study arm formulations). All study arms provided the test article as a softgel. Participants were instructed to take 1 softgel 1-2 hours before bed. To ensure that results were not biased, participants were randomly assigned to product, were blinded to the contents, and were not told what they were taking until the conclusion of the study. The secondary aim of the study was to assess the tolerability of the three formulations of TruCBN softgels and 4 mg melatonin, relative to placebo.
(§2) Study participants were at least 21 years old, endorsed a desire for better sleep quality, and expressed interest in taking a cannabinoid product to improve their sleep. The study was entirely virtual; participants were recruited through online recruitment channels, study product was delivered directly to participants' homes, and all data were collected via online surveys delivered to their mobile device or computer. There were four phases of the study (see FIG. 1 for study timeline): (1) Recruitment and Randomization, (2) Baseline (1 week), (3) Study period (2-5 weeks), and (4) Conclusion.
The PROMIS™ Sleep Disturbance SF4A threshold for minimally important difference: One-half the standard deviation of the baseline score (Norman, G. R. et al., Med. Care, 2003, 41:582-592).
(§3) After receiving study product, each participant was instructed to take 1 softgel each day orally 1-2 hours before bed and complete weekly health and product use surveys. This phase of the study lasted about 4 weeks.
(§4) For precision, adjustments were made for sex, age, race, ethnicity, and body mass index (BMI) in every model. […] Analysis was conducted using Stata 17 and R. An intent-to-treat analysis was run, meaning that all participants who were assigned product (aside from the aforementioned exclusions) were included in the analysis according to their product assignment, regardless of product adherence or study attrition. Visuals of the predicted marginal means of health scores, rather than the raw mean scores, were prepared. Predicted marginal means were calculated from the statistical models and better represent the true differences between arms adjusting for any potential imbalances across arms. A finding that was “significant” means that the likelihood of falsely rejecting the null hypothesis that there were no differences between groups was very small (less than 5%; i.e., the p-value was less than 0.05). In other words, when certain findings were said to be “significant” they are not considered the result of random variation.

[2] = test system: sleep disturbance; experiment: Participant global impression of change (PGIC) in sleep disturbance; details: for Odds Ratio (95% Confidence interval), sleep disturbance PGIC: Dunnett correction; for Parameter estimate for PGIC in sleep disturbance: treatment reference placebo, log-odds scale
Method: as §1
Participants received a final study survey asking about their overall experiences and impressions. Afterwards they also receive a Report containing their individualized data.
as §4

[3] = Average time to effect reported by participants; details: oral
Method: as §3
Participants reported experiencing an effect between 46 and 55 minutes after taking their study product.

[4] = Tolerability: side effects reported by participants
Method: as §1, §3
The side effects for all study arms were similar in frequency and mostly mild; none were considered serious or required use of emergency or non-emergency healthcare services. The most commonly reported side effect was grogginess or drowsiness (see FIG. 7). Additional side effects reported by some participants included: chest pain, constipation, urinary tract infection, tingling in lips, dry mouth, weight gain, dry or itchy eyes, low libido, rash, and brain fog.

[5] = test system: sleep disturbance; experiment: PROMIS Sleep Disturbance 8A survey, randomized blinded placebo-controlled study; details: for Relative Risk for meaningful clinical improvement on the PROMIS Sleep Disturbance 8A / Estimated marginal percentage achieving meaningful clinical improvement on the PROMIS Sleep 8A: 95% CI in parentheses; for Observed % Achieving Meaningful Clinical Improvement on the PROMIS Sleep 8A: 30% or greater reduction from baseline; for % experiencing MCID in PROMIS Sleep Disturbance 8A score: MCID = score reduction of one half the standard deviation of the baseline score; for Estimated marginal percentage achieving meaningful clinical improvement on the PROMIS Sleep 8A: improvement = 30% or greater reduction from baseline; for Parameter Estimate for PROMIS Sleep Disturbances 8a, Treatment: reference placebo, linear mixed-effects model
Method: as §1, §2
PROMIS™ Sleep Disturbance 8A: An 8-question survey, with severity thresholds based on T-scores not raw scores. The severity scores are established as follows: • “None to slight”=Less than 55 • “Mild”=55.0-59.9 • “Moderate”=60.0-69.9 • “Severe”=70 and up
The range of raw scores were from 8 to 40, with higher scores translating to greater sleep disturbance (i.e., worse sleep quality). PROMIS™ Sleep Disturbance 8A threshold for minimally important difference: One-half the standard deviation of the baseline score (Purvis, Taylor E. et al., SPINE, 2018, 43(21):1512-1520).
as §3, §4

## CCCCCc1cc(O)c2c(c1)OC(C)(C)c1ccc(C)cc1-2 [CBN, 6,6,9-trimethyl-3-pentyl-benzo[c]chromen-1-ol]
[1]; 25 mg CBN − placebo
  Relative Risk for meaningful clinical improvement on the PROMIS Sleep SF4A: 1.35 (0.66, 2.03)
[1]; 25 mg CBN
  Observed % Achieving Meaningful Clinical Improvement on the PROMIS Sleep SF4A: 47.83%
  Estimated marginal percentage achieving meaningful clinical improvement on the PROMIS Sleep SF4A: 46.28% (34.73%, 61.7%)
[1]; 25 mg CBN, week 1
  Estimated marginal mean, PROMIS Sleep Disturbance SF4A: 11.0
[1]; 25 mg CBN, week 2
  Estimated marginal mean, PROMIS Sleep Disturbance SF4A: 10.81
[1]; 25 mg CBN, week 3
  Estimated marginal mean, PROMIS Sleep Disturbance SF4A: 11.1
[1]; 25 mg CBN, week 4
  Estimated marginal mean, PROMIS Sleep Disturbance SF4A: 10.9
[1]; 50 mg CBN − placebo
  Relative Risk for meaningful clinical improvement on the PROMIS Sleep SF4A: 1.59 (0.81, 2.37)
[1]; 50 mg CBN
  Observed % Achieving Meaningful Clinical Improvement on the PROMIS Sleep SF4A: 58.33%
  Estimated marginal percentage achieving meaningful clinical improvement on the PROMIS Sleep SF4A: 54.76% (41.80%, 71.7%)
[1]; 50 mg CBN, week 1
  Estimated marginal mean, PROMIS Sleep Disturbance SF4A: 10.7
[1]; 50 mg CBN, week 2
  Estimated marginal mean, PROMIS Sleep Disturbance SF4A: 10.9
[1]; 50 mg CBN, week 3
  Estimated marginal mean, PROMIS Sleep Disturbance SF4A: 10.8
[1]; 50 mg CBN, week 4
  Estimated marginal mean, PROMIS Sleep Disturbance SF4A: 10.3
[1]; 100 mg CBN − placebo
  Relative Risk for meaningful clinical improvement on the PROMIS Sleep SF4A: 1.47 (0.75, 2.19)
[1]; 100 mg CBN
  Observed % Achieving Meaningful Clinical Improvement on the PROMIS Sleep SF4A: 53.19%
  Estimated marginal percentage achieving meaningful clinical improvement on the PROMIS Sleep SF4A: 50.56% (38.37%, 66.6%)
[1]; 100 mg CBN, week 1
  Estimated marginal mean, PROMIS Sleep Disturbance SF4A: 10.8
[1]; 100 mg CBN, week 2
  Estimated marginal mean, PROMIS Sleep Disturbance SF4A: 11.33
[1]; 100 mg CBN, week 3
  Estimated marginal mean, PROMIS Sleep Disturbance SF4A: 10.8
[1]; 100 mg CBN, week 4
  Estimated marginal mean, PROMIS Sleep Disturbance SF4A: 10.8
[2]; 25 mg CBN
  Marginal mean (95% confidence interval), sleep disturbance PGIC: 3.81
  Parameter estimate for PGIC in sleep disturbance: 0.63
[2]; 25 mg CBN − placebo
  Odds Ratio (95% Confidence interval), sleep disturbance PGIC: 1.88 (0.98, 3.62)
[2]; 50 mg CBN
  Marginal mean (95% confidence interval), sleep disturbance PGIC: 3.91
  Parameter estimate for PGIC in sleep disturbance: 0.85
[2]; 50 mg CBN − placebo
  Odds Ratio (95% Confidence interval), sleep disturbance PGIC: 2.35 (1.22, 4.51)
[2]; 100 mg CBN
  Marginal mean (95% confidence interval), sleep disturbance PGIC: 3.91
  Parameter estimate for PGIC in sleep disturbance: 0.85
[2]; 100 mg CBN − placebo
  Odds Ratio (95% Confidence interval), sleep disturbance PGIC: 2.35 (1.24, 4.44)
[3]; 25 mg CBN softgel
  Average time to effect: 54.9 min
[3]; 50 mg CBN softgel
  Average time to effect: 55.5 min
[3]; 100 mg CBN softgel
  Average time to effect: 46.4 min
[4]; 25 mg CBN
  % of participants reporting any side effects: 6.8%
[4]; 50 mg CBN
  % of participants reporting any side effects: 12.9%
[4]; 100 mg CBN
  % of participants reporting any side effects: 7.9%
[5]; 25 mg CBN − placebo
  Relative Risk for meaningful clinical improvement on the PROMIS Sleep Disturbance 8A: 1.33 (0.65, 2.01)
[5]; 25 mg CBN
  Observed % Achieving Meaningful Clinical Improvement on the PROMIS Sleep 8A: 46.7%
  % experiencing MCID in PROMIS Sleep Disturbance 8A score: 46.7%
  Estimated marginal percentage achieving meaningful clinical improvement on the PROMIS Sleep 8A: 47.1% (35.41%, 62.66%)
  Parameter Estimate for PROMIS Sleep Disturbances 8a, Treatment: 0.14
[5]; 25 mg CBN, week 1
  Estimated marginal mean, PROMIS Sleep Disturbance 8A: 21.6
[5]; 25 mg CBN, week 2
  Estimated marginal mean, PROMIS Sleep Disturbance 8A: 20.6
[5]; 25 mg CBN, week 3
  Estimated marginal mean, PROMIS Sleep Disturbance 8A: 21.3
[5]; 25 mg CBN, week 4
  Estimated marginal mean, PROMIS Sleep Disturbance 8A: 20.9
[5]; 50 mg CBN − placebo
  Relative Risk for meaningful clinical improvement on the PROMIS Sleep Disturbance 8A: 1.46 (0.72, 2.2)
[5]; 50 mg CBN
  Observed % Achieving Meaningful Clinical Improvement on the PROMIS Sleep 8A: 53.6%
  % experiencing MCID in PROMIS Sleep Disturbance 8A score: 53.6%
  Estimated marginal percentage achieving meaningful clinical improvement on the PROMIS Sleep 8A: 51.6% (38.93%, 68.48%)
  Parameter Estimate for PROMIS Sleep Disturbances 8a, Treatment: 0.28
[5]; 50 mg CBN, week 1
  Estimated marginal mean, PROMIS Sleep Disturbance 8A: 20.4
[5]; 50 mg CBN, week 2
  Estimated marginal mean, PROMIS Sleep Disturbance 8A: 21
[5]; 50 mg CBN, week 3
  Estimated marginal mean, PROMIS Sleep Disturbance 8A: 20.7
[5]; 50 mg CBN, week 4
  Estimated marginal mean, PROMIS Sleep Disturbance 8A: 20.3
[5]; 100 mg CBN − placebo
  Relative Risk for meaningful clinical improvement on the PROMIS Sleep Disturbance 8A: 1.39 (0.7, 2.08)
[5]; 100 mg CBN
  Observed % Achieving Meaningful Clinical Improvement on the PROMIS Sleep 8A: 50.0%
  % experiencing MCID in PROMIS Sleep Disturbance 8A score: 50.0%
  Estimated marginal percentage achieving meaningful clinical improvement on the PROMIS Sleep 8A: 49.1% (36.96%, 65.24%)
  Parameter Estimate for PROMIS Sleep Disturbances 8a, Treatment: 0.59
[5]; 100 mg CBN, week 1
  Estimated marginal mean, PROMIS Sleep Disturbance 8A: 20.99
[5]; 100 mg CBN, week 2
  Estimated marginal mean, PROMIS Sleep Disturbance 8A: 21.77
[5]; 100 mg CBN, week 3
  Estimated marginal mean, PROMIS Sleep Disturbance 8A: 20.84
[5]; 100 mg CBN, week 4
  Estimated marginal mean, PROMIS Sleep Disturbance 8A: 20.9

## COc1ccc2[nH]cc(CCNC(C)=O)c2c1 [melatonin, reference compound]
[1]; 4 mg melatonin − placebo
  Relative Risk for meaningful clinical improvement on the PROMIS Sleep SF4A: 1.49 (0.74, 2.25)
[1]; 4 mg melatonin
  Observed % Achieving Meaningful Clinical Improvement on the PROMIS Sleep SF4A: 53.25%
  Estimated marginal percentage achieving meaningful clinical improvement on the PROMIS Sleep SF4A: 51.25% (38.25%, 68.7%)
[1]; 4 mg melatonin, week 1
  Estimated marginal mean, PROMIS Sleep Disturbance SF4A: 10.8
[1]; 4 mg melatonin, week 2
  Estimated marginal mean, PROMIS Sleep Disturbance SF4A: 10.7
[1]; 4 mg melatonin, week 3
  Estimated marginal mean, PROMIS Sleep Disturbance SF4A: 10.7
[1]; 4 mg melatonin, week 4
  Estimated marginal mean, PROMIS Sleep Disturbance SF4A: 10.5
[2]; 4 mg Melatonin
  Parameter estimate for PGIC in sleep disturbance: 0.79
[2]; 4 mg melatonin
  Marginal mean (95% confidence interval), sleep disturbance PGIC: 3.88
[2]; 4 mg melatonin − placebo
  Odds Ratio (95% Confidence interval), sleep disturbance PGIC: 2.21 (1.15, 4.21)
[3]; 4 mg melatonin softgel
  Average time to effect: 49.1 min
[4]; 4 mg melatonin
  % of participants reporting any side effects: 11.9%
[5]; 4 mg Melatonin
  Parameter Estimate for PROMIS Sleep Disturbances 8a, Treatment: −0.56
[5]; 4 mg melatonin − placebo
  Relative Risk for meaningful clinical improvement on the PROMIS Sleep Disturbance 8A: 1.43 (0.7, 2.16)
[5]; 4 mg melatonin
  Observed % Achieving Meaningful Clinical Improvement on the PROMIS Sleep 8A: 51.9%
  % experiencing MCID in PROMIS Sleep Disturbance 8A score: 51.9%
  Estimated marginal percentage achieving meaningful clinical improvement on the PROMIS Sleep 8A: 50.5% (37.54%, 67.94%)
[5]; 4 mg melatonin, week 1
  Estimated marginal mean, PROMIS Sleep Disturbance 8A: 20.7
[5]; 4 mg melatonin, week 2
  Estimated marginal mean, PROMIS Sleep Disturbance 8A: 20.4
[5]; 4 mg melatonin, week 3
  Estimated marginal mean, PROMIS Sleep Disturbance 8A: 20.7
[5]; 4 mg melatonin, week 4
  Estimated marginal mean, PROMIS Sleep Disturbance 8A: 20.4

Source: patent publication US20250009765A1, “COMPOSITIONS AND METHODS FOR REDUCING SLEEP DI[…] TREATING SLEEP DISORDERS” (FloraScience Inc., priority 2023, published 2025)
